Values joined by “and” are separate entries in the source; they are usually repeats but may differ in a detail not shown here. Equal values may be shown once. Toxic doses and inconclusive results are not listed.
System: BDF1 mice, Lewis lung carcinoma iv, survival T/C
Test: NCI In Vivo Anticancer Drug Screen. Data for tumor model Lewis Lung Carcinoma (intravenous) in B6D2F1 (BDF1) mice
Details: endpoint: median survival time, higher = longer survival
Procedure: The antitumor activity of compounds was measured in mice bearing transplantable tumors. Survival or tumor size were measured and the results are expressed as the measurement made in the treated group (T) divided by the measurement made in the vehicle treated control group (C). The tumor model used in this assay is Lewis Lung Carcinoma (intravenous) in B6D2F1 (BDF1) mice

[1] = dose: 12.0 mg/kg/injection, schedule: Q01DX009 (ip), vehicle: saline with Tween-80
[2] = dose: 25.0 mg/kg/injection, schedule: Q01DX009 (ip), vehicle: saline with Tween-80
[3] = dose: 50.0 mg/kg/injection, schedule: Q01DX009 (ip), vehicle: saline with Tween-80
[4] = dose: 100.0 mg/kg/injection, schedule: Q01DX009 (ip), vehicle: saline with Tween-80
[5] = dose: 6.25 mg/kg/injection, schedule: Q01DX009 (ip), vehicle: saline
[6] = dose: 12.5 mg/kg/injection, schedule: Q01DX009 (ip), vehicle: saline
[7] = dose: 25.0 mg/kg/injection, schedule: Q01DX009 (ip), vehicle: saline
[8] = dose: 50.0 mg/kg/injection, schedule: Q01DX009 (ip), vehicle: saline
[9] = dose: 100.0 mg/kg/injection, schedule: Q01DX009 (ip), vehicle: saline
[10] = dose: 200.0 mg/kg/injection, schedule: Q01DX009 (ip), vehicle: saline
[11] = dose: 12.5 mg/kg/injection, schedule: Q01DX009 (ip), vehicle: saline with Tween-80
[12] = dose: 200.0 mg/kg/injection, schedule: Q01DX009 (ip), vehicle: saline with Tween-80
[13] = dose: 25.0 mg/kg/injection, schedule: Q01DX009 (ip), vehicle: Klucel (hydroxypropylcellulose) (HPC)
[14] = dose: 6.25 mg/kg/injection, schedule: Q01DX009 (ip), vehicle: saline with Tween-80

CC(=O)OC1C2(CC3N4C(=O)C5(CO)SSC4(CC31O)C(=O)N5C)OC(C)C(C)(C)C2=O (centres undefined)
T/C (dose: 0.62 mg/kg/injection, schedule: Q01DX009 (ip), vehicle: saline): 171 % of control

CNc1cccnc1/C=N/NC(N)=S
T/C [1]: 100 % of control
T/C [2]: 103 % of control
T/C [3]: 102 % of control
T/C [4]: 115 % of control

Nc1nc2c(ncn2C2OC(CO)C(O)C2N)c(=O)[nH]1 (centres undefined)
T/C (dose: 3.0 mg/kg/injection, schedule: Q01DX009 (ip), vehicle: saline with Tween-80): 101 % of control
T/C (dose: 6.0 mg/kg/injection, schedule: Q01DX009 (ip), vehicle: saline with Tween-80): 110 % of control
T/C [1]: 108 % of control
T/C (dose: 24.0 mg/kg/injection, schedule: Q01DX009 (ip), vehicle: saline with Tween-80): 99 % of control

CC1(C)COCN1COCCOCN1COCC1(C)C
T/C [5]: 114 % of control
T/C [6]: 97 % of control
T/C [7]: 106 % of control
T/C [8]: 122 % of control
T/C [9]: 95 % of control

O=C(/C=C(\Cl)C(=O)NO)NO
T/C [5]: 124 % of control
T/C [6]: 105 % of control
T/C [7]: 105 % of control
T/C [8]: 110 % of control
T/C [9]: 115 % of control
T/C [10]: 104 % of control

[O-][n+]1c(CN2CCCCC2)nc2cccc3c2c1-c1ccccc1-3
T/C [11]: 98 % of control and 100 % of control
T/C [2]: 98 % of control and 123 % of control
T/C [3]: 105 % of control and 106 % of control
T/C [4]: 111 % of control and 116 % of control
T/C [12]: 102 % of control and 118 % of control
T/C (dose: 400.0 mg/kg/injection, schedule: Q01DX009 (ip), vehicle: saline with Tween-80): 111 % of control

COc1cc2c[n+](C)c3c4cc5c(cc4ccc3c2cc1OC)OCO5 (tested in a mixture with another compound)
T/C (dose: 3.13 mg/kg/injection, schedule: Q01DX009 (ip), vehicle: Klucel (hydroxypropylcellulose) (HPC)): 103 % of control
T/C (dose: 6.25 mg/kg/injection, schedule: Q01DX009 (ip), vehicle: Klucel (hydroxypropylcellulose) (HPC)): 184 % of control
T/C (dose: 12.5 mg/kg/injection, schedule: Q01DX009 (ip), vehicle: Klucel (hydroxypropylcellulose) (HPC)): 120 % of control
T/C [13]: 120 % of control

Cc1c(N)nc([C@H](CC(N)=O)NC[C@H](N)C(N)=O)nc1C(=O)N[C@H](C(=O)N[C@H](C)[C@@H](O)CC(=O)N[C@H](C(=O)NC(O[C@@H]1O[C@@H](C)[C@@H](N)[C@@H](O)[C@H]1O)C(O)c1nc(-c2nc(C(=O)NCCCCN)cs2)cs1)[C@@H](C)O)[C@@H](O[C@@H]1O[C@@H](CO)[C@@H](O)[C@H](O)[C@@H]1O[C@H]1O[C@H](CO)[C@@H](O)[C@H](OC(N)=O)[C@@H]1O)c1c[nH]cn1 (some centres undefined)
T/C (dose: 1.0 mg/kg/injection, schedule: Q01DX009 (ip), vehicle: saline): 109 % of control
T/C (dose: 2.0 mg/kg/injection, schedule: Q01DX009 (ip), vehicle: saline): 114 % of control

C[N+](C)(C)c1ncnc2nc[nH]c12
T/C [8]: 103 % of control
T/C [9]: 100 % of control
T/C [10]: 103 % of control

c1ccc(CN2CCOC2)cc1
T/C [6]: 96 % of control
T/C [7]: 107 % of control
T/C [8]: 116 % of control
T/C [9]: 99 % of control

COc1nc(=O)n(C2C=CC(=O)O2)cc1F (centres undefined)
T/C [5]: 97 % of control
T/C [6]: 102 % of control
T/C [7]: 96 % of control
T/C [8]: 102 % of control
T/C [9]: 97 % of control

COP12(OCCO1)SC(C(F)(F)F)=C(C(F)(F)F)S2
T/C [14]: 106 % of control
T/C [11]: 105 % of control
T/C [2]: 98 % of control
T/C [3]: 95 % of control

C[Si](C)(C)O/C=C1\CCCCC1=O
T/C [14]: 96 % of control and 98 % of control
T/C [11]: 96 % of control and 98 % of control
T/C [2]: 93 % of control and 102 % of control
T/C [3]: 102 % of control and 107 % of control
T/C [4]: 104 % of control and 116 % of control
T/C [12]: 104 % of control and 113 % of control

CCCCC(=O)OCC(=O)[C@]1(O)Cc2c(O)c3c(c(O)c2[C@@H](OC2CC(NC(=O)C(F)(F)F)C(O)C(C)O2)C1)C(=O)c1c(OC)cccc1C3=O (some centres undefined)
T/C (dose: 4.0 mg/kg/injection, schedule: Q01DX009 (ip), vehicle: distilled water + Tween-80): 100 % of control
T/C (dose: 8.0 mg/kg/injection, schedule: Q01DX009 (ip), vehicle: distilled water + Tween-80): 102 % of control
T/C (dose: 16.0 mg/kg/injection, schedule: Q01DX009 (ip), vehicle: distilled water + Tween-80): 121 % of control

Nc1nc2c(ncn2C2OC(CO)C(O)C2O)c(=O)[nH]1.Nc1nc2c(ncn2C2OC(CO)C(O)C2O)c(=O)[nH]1.[NH2-].[NH2-].[Pt+2] (centres undefined)
T/C (dose: 12.5 mg/kg/injection, schedule: Q01DX009 (ip), vehicle: water): 99 % of control
T/C (dose: 25.0 mg/kg/injection, schedule: Q01DX009 (ip), vehicle: water): 96 % of control
T/C (dose: 50.0 mg/kg/injection, schedule: Q01DX009 (ip), vehicle: water): 104 % of control
T/C (dose: 100.0 mg/kg/injection, schedule: Q01DX009 (ip), vehicle: water): 113 % of control

COc1cc(OC)c(OC)cc1/C=C\c1ccnc2ccccc12
T/C [13]: 113 % of control
T/C (dose: 50.0 mg/kg/injection, schedule: Q01DX009 (ip), vehicle: Klucel (hydroxypropylcellulose) (HPC)): 105 % of control
T/C (dose: 100.0 mg/kg/injection, schedule: Q01DX009 (ip), vehicle: Klucel (hydroxypropylcellulose) (HPC)): 100 % of control
T/C (dose: 200.0 mg/kg/injection, schedule: Q01DX009 (ip), vehicle: Klucel (hydroxypropylcellulose) (HPC)): 107 % of control

CN(C)[C@@H]1C(=O)C(C(N)=O)=C(O)[C@@]2(O)C(=O)C3=C(O)c4c(O)ccc(Cl)c4[C@@](C)(O)[C@H]3C[C@@H]12
T/C [6]: 111 % of control
T/C [7]: 101 % of control
T/C [8]: 99 % of control
T/C [9]: 103 % of control
T/C [10]: 107 % of control

Cc1ccc2c(c1)C(=O)N(CC[P+](c1ccccc1)(c1ccccc1)c1ccccc1)C2=O
T/C (dose: 0.78 mg/kg/injection, schedule: Q09DX009 (ip), vehicle: water): 98 % of control
T/C (dose: 1.56 mg/kg/injection, schedule: Q09DX009 (ip), vehicle: water): 89 % of control
T/C (dose: 3.12 mg/kg/injection, schedule: Q09DX009 (ip), vehicle: water): 89 % of control
T/C (dose: 6.25 mg/kg/injection, schedule: Q09DX009 (ip), vehicle: water): 87 % of control
T/C (dose: 12.5 mg/kg/injection, schedule: Q09DX009 (ip), vehicle: water): 97 % of control

CCC(C)n1ncc2c(N(C)C)ncnc21 (centres undefined)
T/C [7]: 102 % of control
T/C [8]: 98 % of control

O=c1[nH]c(=O)n(C2CC(O)C(CO)O2)cc1I (centres undefined)
T/C [4]: 99 % of control
T/C [12]: 108 % of control

From PubChem BioAssay AID274 (DTP/NCI, 2004)
